By MIC is commonly meant the least concentration at which growth counts as inhibited. Broadly, the zone of inhibition is the size of the clear area around the sample on an inoculated plate. Higher therefore signals wide suppression of growth. In general, LD50 refers to the dose expected to kill half of the subjects tested. A higher LD50 goes with a less toxic substance. Usually solubility stands for the concentration that dissolves in the medium under given conditions.

Values after ≈ are worked out from the molar mass of the structure shown. Read-outs that look alike come from different tables or passages of the source.

The values that follow come from patent publication US8877980B2, “Phenylboronic acid” (Al-Urdonia Lemudaddat Al-Ajsam Co., priority 2012, dated 2014).

Data set [1] has as its system E. coli ATCC 8739. As to the kind of experiment: Broth microdilution MIC determination. The class given is cell-based. As to the method:
(§1) The following bacterial strains were used; S. aureus ATCC 29350, E. coli ATCC 8739, and P. aeruginosa ATCC 27853. The cultivation medium for P. aeruginosa and E. coli were tryptone soy Agar (Oxoid, UK), and, 5% defibrinated sheep blood added to columbia blood agar base (Oxoid, UK). The bacterial cultures were aerobically grown at 37° C. for 24 hrs. For antimicrobial testing, the bacterial cultures were prepared by picking colonies from logarithmic phase of growth and suspended in 5 ml of Mueller Hinton broth with suitable supplements. The bacterium inoculum sizes were adjusted to 10^8 CFU/ml for all strains.
(§2) solutions of 2-(bromoacetamido)phenylboronic acid were prepared by gradually dissolving 2-(bromoacetamido)phenylboronic acid to the maximum solubility in 100% DMSO (1 mg/ml). Similarly standard stock solution of Vancomycin and Penicillin (1 mg/ml) were used as positive controls.
For the broth microdilution test, 100 μL of each bacterial suspension in suitable growth medium was added to the wells of a sterile 96-well microtitre plate already containing 100 μL of two-fold serially diluted 2-(bromoacetamido)phenylboronic acid or vancomycin and penicillin in proper growth medium. The final volume in each well was 200 μL. Control wells were prepared with culture medium, bacterial suspension only compound only and DMSO in amounts corresponding to the highest quantity present. […]
On the technique in general: Dilution methods test growth across graded concentrations, often in twofold steps.

Data set [2] relates to S. aureus ATCC 2592. As to the kind of experiment: Disk diffusion. The class given is cell-based. On the technique in general: In agar diffusion tests the substance spreads into inoculated agar from a disc or well.
The test system of data set [3] is P. aerugionsa ATCC 27853. In words: Broth microdilution MIC determination. The class given is cell-based, P. aeruginosa. To be noted: for MIC: Pseudomonas aeruginosa. On the procedure: as §1, §2
For the broth microdilution test, 100 μL of each bacterial suspension in suitable growth medium was added to the wells of a sterile 96-well microtitre plate already containing 100 μL of two-fold serially diluted 2-(bromoacetamido)phenylboronic acid or vancomycin and penicillin in proper growth medium. The final volume in each well was 200 μL. Control wells were prepared with culture medium, bacterial suspension only compound only and DMSO in amounts corresponding to the highest quantity present. […] To indicate cell viability, the presence of a purple color was determined after adding 20 μL/well of 500 ug/ml MTT (3-(4,5-Dimethylthiazol-2-yl-2,5-diphenyltetrazolium bromide, Sigma) and incubated under appropriate cultivation conditions (37° C. for 3 hrs). To determine the formation of formazan by living cells, OD570 was measured by a Microplate Reader (Thermoscientific, Finland) after adding 200 μL/well of a solubilizing solution (a mixture of DMSO:ethanol (1:1)). Positive controls were wells with a bacterial suspension in an appropriate growth medium. Negative controls were wells with growth medium and antimicrobial compound. […]

For data set [4], the system named is S. aureus ATCC 2592. As to the kind of experiment: Broth microdilution MIC determination. The class given is cell-based. To be noted: Staphylococcus aureus, ATCC2592, 24 h, MTT readout.
The test system of data set [5] is E. coli ATCC 8739. In words: Disk diffusion. It counts as cell-based. As to the method:
as §1, §2
(§3) For the disk diffusion assay, bacterial suspensions were prepared to the standard McFarland's (0.5) and subsequently uniformly spread on a solid growth medium in a Petri dish. Sterile paper disks (6 mm in diameter; oxoid, UK) were placed on the surface of each agar plate and were impregnated with 30 μL to a final concentration of 600 ug/ml of each agent to be tested. The plates were incubated for the recommended time periods (18-24 hrs) under appropriate cultivation conditions. Antibacterial activity was determined by measuring an inhibition zone around a disk following the incubation. Disks impregnated with sterile distilled water, DMSO served as negative controls and disks with standard antibiotics Vancomycin and penicillin (Oxoid, UK) served as positive controls. Triplicates at each concentration were performed and the average of the results was taken.

The nature of data set [6]: Single dose acute toxicity study and LD50 determination. The class given is in vivo, mice. To be noted: mouse, in vivo; acute oral, dissolved in DMSO, BALB/c mice; curve generated. On the procedure: (§4) Results of Acute Toxicity of 2-(bromoacetamido)phenylboronic Acid in Balb/c Mice
(§5) • a. […] This effect started 30 minutes post treatment. The activity was recovered after 3 hours post treatment (for survived animals). […] The time of deaths was observed as dose dependent. Mice treated with 150 mg/kg died within 18 hours of 2-(bromoacetamido)phenylboronic acid administration while mice treated with 200 mg/kg died within 4 hours post treatment. • e.

Another data set deals with Balb/c Mice. The data set is described as above. It counts as in vivo. On the procedure:
as §4, §5

The nature of data set [7]: Maximum solubility in DMSO (stock solution). It counts as physicochemical. As to conditions: 100% DMSO, organic solvent or mixture, thermodynamic from solid. As to the method:
as §2

The test system of data set [8] is MRSA clinical strain. As to the kind of experiment: Broth microdilution MIC determination. It counts as cell-based, methicillin resistant S. aureus. As to conditions: for MIC: Staphylococcus aureus, 24 h.
Data set [9] deals with P. aerugionsa ATCC 27853. As to the kind of experiment: Disk diffusion. The class given is cell-based. As to conditions: P. aeruginosa ATCC 27853. On the procedure: as §1, §2, §3
Data set [10] relates to MRSA clinical strain. As to the kind of experiment: Disk diffusion. The class given is cell-based, methicillin resistant S. aureus.

As for `O=C(CBr)Nc1ccccc1B(O)O` [2-(bromoacetamido)phenylboronic acid], the “Growth inhibition (statement in words)” value is reported as “inhibits the growth” in the data set with E. coli ATCC 8739 [1] (E. coli, general statement of the description, method not named); “inhibits the growth” with P. aerugionsa ATCC 27853 [3] (P. aeruginosa, general statement of the description, method not named); “inhibits the growth” in the data set on MRSA clinical strain [8] (MRSA, general statement of the description, method not named). Further, the MIC is 75 µg/mL (≈ 291 µM) with E. coli ATCC 8739 [1] (Escherichia coli, ATCC8739, E. coli ATCC 8739, 24 h, MTT readout); over 600 µg/mL in the data set with P. aerugionsa ATCC 27853 [3] (ATCC27853, P. aeruginosa ATCC 27853, 24 h, MTT readout, read-out: MIC); 1.56 µg/mL (≈ 6.05 µM) in the data set on S. aureus ATCC 2592 [4]; 1.56 µg/mL (≈ 6.05 µM) in the data set with MRSA clinical strain [8] (MRSA clinical strain, MTT readout, read-out: MIC). Besides, the zone of inhibition at 600 µg/mL with S. aureus ATCC 2592 [2] (Staphylococcus aureus, ATCC2592, agent concentration as in row label (vancomycin 100 μg/ml, compound 600 μg/ml)) was 24 mm; in the data set with E. coli ATCC 8739 [5] (Escherichia coli, ATCC8739, agent concentration as in row label (ampicillin 20 mg/ml, compound 600 μg/ml)), 16 mm. The LD50 at 14 days in data set [6] is about 130 mg/kg. In addition, the “% Death/group” value with Balb/c Mice (10 mg/kg single oral dose in DMSO) is recorded as 0%; in the data set with Balb/c Mice (50 mg/kg single oral dose in DMSO), 0%; in the data set on Balb/c Mice (100 mg/kg single oral dose in DMSO) it was 0%; with Balb/c Mice (150 mg/kg single oral dose in DMSO), 70%; in the data set with Balb/c Mice (200 mg/kg single oral dose in DMSO), 70%. Further, the entries for the “Time of death after administration” value in the data set with Balb/c Mice (150 mg/kg) and in the data set on Balb/c Mice (200 mg/kg) were at most 18 h and at most 4 h, respectively. The “Behaviour and clinical signs post administration” value in the data set with Balb/c Mice (10, 50 and 100 mg/kg) is given as “behaved normally”; with Balb/c Mice (150 and 200 mg/kg), “Reduced activity”. The “Start of reduced activity post treatment” value in the data set on Balb/c Mice (150 and 200 mg/kg) came to 30 min. In the data set with Balb/c Mice (150 and 200 mg/kg, survived animals), the “Recovery of activity post treatment” value was 3 h. In addition, the “Doses showing systemic toxicity and causing death” value in the data set on Balb/c Mice (acute oral, dissolved in DMSO, BALB/c mice) is listed as “above 100 mg/kg”. Besides, the “Change in body weights” value with Balb/c Mice (all groups) is “No significant change”. The Gross autopsy entry in the data set with Balb/c Mice (dead mice and all survivors at day 14) is “did not reveal any significant findings”. In addition, the “% Death/gender” value with Balb/c Mice (females, 10 mg/kg single oral dose in DMSO) is given as 0%; with Balb/c Mice (females, 50 mg/kg single oral dose in DMSO), 0%; in the data set on Balb/c Mice (females, 100 mg/kg single oral dose in DMSO) it was 0%; with Balb/c Mice (females, 150 mg/kg single oral dose in DMSO), 100%; in the data set with Balb/c Mice (males, 10 mg/kg single oral dose in DMSO), 0%; in the data set on Balb/c Mice (males, 50 mg/kg single oral dose in DMSO), 0%. Further, the “% Death/gender” value in the data set on Balb/c Mice (males, 100 mg/kg single oral dose in DMSO) came to 0%; in the data set with Balb/c Mice (males, 150 mg/kg single oral dose in DMSO), 40%; in the data set on Balb/c Mice (males, 200 mg/kg single oral dose in DMSO) it was 80%. For the same molecule, in data set [7], the solubility was 1000 µg/mL (≈ 3880 µM).
`CC1(C)S[C@@H]2[C@H](NC(=O)[C@H](N)c3ccccc3)C(=O)N2[C@H]1C(=O)O` [Ampicillin, reference compound]: in the data set on P. aerugionsa ATCC 27853 [3] (ATCC27853, 24 h), the MIC was 150 µg/mL (≈ 429 µM). For the same molecule, the “Susceptibility category (S/R) beside zone of inhibition” value in the data set with P. aerugionsa ATCC 27853 [9] is “R”; with E. coli ATCC 8739 [5], “S”.
With `CN[C@H](CC(C)C)C(=O)N[C@H]1C(=O)N[C@@H](CC(N)=O)C(=O)N[C@H]2C(=O)N[C@H]3C(=O)N[C@H](C(=O)N[C@H](C(=O)O)c4cc(O)cc(O)c4-c4cc3ccc4O)[C@H](O)c3ccc(c(Cl)c3)Oc3cc2cc(c3O[C@@H]2O[C@H](CO)[C@@H](O)[C@H](O)[C@H]2O[C@H]2C[C@](C)(N)[C@H](O)[C@H](C)O2)Oc2ccc(cc2Cl)[C@H]1O` [Vancomycin, reference compound], the “Susceptibility category (S/R) beside zone of inhibition” value in the data set on S. aureus ATCC 2592 [2] and in the data set on MRSA clinical strain [10] was “S” each time. In the data set on MRSA clinical strain [8] (MRSA), this molecule had a minimum inhibitory concentration (MIC) of 0.4 µg/mL (≈ 0.276 µM).
